The text below walks through data of patent US20120264735A1 (priority 2009, published 2012).

Counter-ions that a name gives are not always drawn.

T1 sequence (P08581 25-1390): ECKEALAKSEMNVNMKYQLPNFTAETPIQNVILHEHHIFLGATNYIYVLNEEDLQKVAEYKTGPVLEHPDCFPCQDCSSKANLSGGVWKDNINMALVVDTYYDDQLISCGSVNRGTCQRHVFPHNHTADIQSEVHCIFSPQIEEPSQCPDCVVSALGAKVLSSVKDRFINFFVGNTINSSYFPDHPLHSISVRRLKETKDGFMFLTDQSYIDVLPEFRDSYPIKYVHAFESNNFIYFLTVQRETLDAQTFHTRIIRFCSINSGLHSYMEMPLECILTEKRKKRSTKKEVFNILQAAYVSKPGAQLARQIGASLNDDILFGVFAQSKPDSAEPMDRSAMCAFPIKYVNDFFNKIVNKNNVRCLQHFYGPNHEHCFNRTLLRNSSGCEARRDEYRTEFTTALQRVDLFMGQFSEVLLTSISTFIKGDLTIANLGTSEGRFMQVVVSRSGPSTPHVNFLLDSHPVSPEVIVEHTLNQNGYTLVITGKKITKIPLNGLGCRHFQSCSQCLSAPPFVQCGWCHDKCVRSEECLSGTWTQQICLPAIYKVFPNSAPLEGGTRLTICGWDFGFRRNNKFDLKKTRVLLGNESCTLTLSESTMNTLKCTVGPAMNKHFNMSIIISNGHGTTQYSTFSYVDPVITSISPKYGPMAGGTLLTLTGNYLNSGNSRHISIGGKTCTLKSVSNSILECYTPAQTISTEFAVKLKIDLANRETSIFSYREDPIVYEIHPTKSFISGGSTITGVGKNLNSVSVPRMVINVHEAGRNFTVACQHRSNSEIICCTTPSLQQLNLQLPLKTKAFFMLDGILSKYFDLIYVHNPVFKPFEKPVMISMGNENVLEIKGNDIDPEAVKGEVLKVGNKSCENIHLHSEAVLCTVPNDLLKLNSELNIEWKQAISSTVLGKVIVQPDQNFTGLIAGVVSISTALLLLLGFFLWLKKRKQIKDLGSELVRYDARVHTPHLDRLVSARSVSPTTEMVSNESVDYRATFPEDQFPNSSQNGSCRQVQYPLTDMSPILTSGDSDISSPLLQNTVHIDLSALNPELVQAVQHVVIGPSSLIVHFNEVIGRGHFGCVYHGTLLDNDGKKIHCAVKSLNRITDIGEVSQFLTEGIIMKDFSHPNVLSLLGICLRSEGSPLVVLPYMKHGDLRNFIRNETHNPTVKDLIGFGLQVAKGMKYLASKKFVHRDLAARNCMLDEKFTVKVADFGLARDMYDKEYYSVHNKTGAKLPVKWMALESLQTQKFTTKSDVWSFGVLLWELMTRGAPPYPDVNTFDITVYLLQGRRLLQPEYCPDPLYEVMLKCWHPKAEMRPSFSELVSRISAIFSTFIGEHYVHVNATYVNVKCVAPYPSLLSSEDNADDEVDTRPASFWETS

This experiment addresses T1, c-Met kinase (recombinant c-Met) (Homo sapiens, UniProt P08581).
T1 construct: 0.27 nM recombinant c-Met
In words: In vitro kinase assay I (homogeneous time-resolved fluorescence tyrosine kinase assay). The experiment is classed as biochemical. The gist of the method:
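Biotinylated peptide (0.5 μM) phosphorylated by 0.2 nM recombinant c-Met with 50 μM MgATP, 60 min at room temperature, pH 7.4, 5% DMSO. EDTA stop; HTRF read with Eu-anti-phosphotyrosine antibody and streptavidin-APC. IC50 from 4-parameter logistic fit.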
Consider `CN1CCC(COc2cnc(-c3cccc(Cc4nn(-c5cc(F)cc(F)c5)ccc4=O)c3)nc2)CC1` [Example 173, 1-(3,5-difluorophenyl)-3-(3-{5-[(1-methylpiperidin-4-yl)methoxy]pyrimidin-2-yl}benzyl)pyridazin-4(1H)-one], for which the IC50 (as a rule, the concentration at which inhibition is half-maximal) is < 100 nM.

Turning to `Cn1cc(-n2ccc(=O)c(Cc3cccc(-c4ncc(C5=CCOC5)cn4)c3)n2)cn1` [Example 175, 3-{3-[5-(2,5-dihydrofuran-3-yl)pyrimidin-2-yl]benzyl}-1-(1-methyl-1H-pyrazol-4-yl)pyridazin-4(1H)-one], the concentration for half-maximal inhibition (IC50) is < 100 nM.

As to `CCCCc1nc(-c2cccc(Cc3nn(-c4cnn(C)c4)ccc3=O)c2)ncc1OCC` [Example 176, 3-[3-(4-butyl-5-ethoxypyrimidin-2-yl)benzyl]-1-(1-methyl-1H-pyrazol-4-yl)pyridazin-4(1H)-one], the IC50 was < 100 nM. The figure for `CCOc1cnc(-c2cccc(Cc3nn(-c4cnn(C)c4)ccc3=O)c2)nc1C` [Example 177, 3-[3-(5-ethoxy-4-methylpyrimidin-2-yl)benzyl]-1-(1-methyl-1H-pyrazol-4-yl)pyridazin-4(1H)-one] is < 100 nM; for `CCOc1cnc(-c2cccc(Cc3nn(-c4cnn(C)c4)ccc3=O)c2)nc1CC` [Example 178, 3-[3-(5-ethoxy-4-ethylpyrimidin-2-yl)benzyl]-1-(1-methyl-1H-pyrazol-4-yl)pyridazin-4(1H)-one] it is < 100 nM; for `COC(=O)CCCn1cc(-n2ccc(=O)c(Cc3cccc(NC(=O)OCC(C)C)c3)n2)cn1` [Example 179, methyl 4-{4-[3-(3-{[(2-methylpropoxy)carbonyl]amino}benzyl)-4-oxopyridazin-1(4H)-yl]-1H-pyrazol-1-yl}butanoate] it is < 100 nM. `CC(C)COC(=O)Nc1cccc(Cc2nn(-c3cnn(CCCC(=O)O)c3)ccc2=O)c1` [Example 180, 4-{4-[3-(3-{[(2-methylpropoxy)carbonyl]amino}benzyl)-4-oxopyridazin-1(4H)-yl]-1H-pyrazol-1-yl}butanoic acid]: the IC50 was < 100 nM.

As for `CC(C)COC(=O)Nc1cccc(Cc2nn(-c3cnn(CC(=O)O)c3)ccc2=O)c1` [Example 181, {4-[3-(3-{[(2-methylpropoxy)carbonyl]amino}benzyl)-4-oxopyridazin-1(4H)-yl]-1H-pyrazol-1-yl}acetic acid], the IC50 is < 100 nM. As for `CC(C)COC(=O)Nc1cccc(Cc2nn(-c3cnn(CCC(=O)O)c3)ccc2=O)c1` [Example 182, 3-{4-[3-(3-{[(2-methylpropoxy)carbonyl]amino}benzyl)-4-oxopyridazin-1(4H)-yl]-1H-pyrazol-1-yl}propanoic acid], the half-maximal inhibitory concentration (IC50) was < 100 nM.

`Cn1cc(-n2ccc(=O)c(Cc3cccc(-c4ncc(N)cn4)c3)n2)cn1` [Example 183, 3-[3-(5-Aminopyrimidin-2-yl)benzyl]-1-(1-methyl-1H-pyrazol-4-yl)pyridazin-4(1H)-one]: the IC50 was < 100 nM. Consider `Cn1cc(-n2ccc(=O)c(Cc3ccc4[nH]ncc4c3)n2)cn1` [Example 184, 3-(1H-Indazol-5-ylmethyl)-1-(1-methyl-1H-pyrazol-4-yl)pyridazin-4(1H)-one], for which the IC50 lay in the range of 100 to 1000 nM. Consider `CCCc1nc(-c2cccc(Cc3nn(-c4cnn(C)c4)ccc3=O)c2)n[nH]1` [Example 185, 1-(1-Methyl-1H-pyrazol-4-yl)-3-[3-(5-propyl-1H-1,2,4-triazol-3-yl)benzyl]pyridazin-4(1H)-one], for which the IC50 was in the range of 100 to 1000 nM.

Regarding `Cn1cc(-n2ccc(=O)c(Cc3cccc(-c4nc[nH]n4)c3)n2)cn1` [Example 186, 1-(1-Methyl-1H-pyrazol-4-yl)-3-[3-(1H-1,2,4-triazol-3-yl)benzyl]pyridazin-4(1H)-one hydrochloride], the IC50 is < 100 nM. The result for `Cn1cc(-n2ccc(=O)c(Cc3cccc(-c4ncc(O)cn4)c3)n2)cn1` [Example 187, 3-[3-(5-Hydroxypyrimidin-2-yl)benzyl]-1-(1-methyl-1H-pyrazol-4-yl)pyridazin-4(1H)-one] reads 100 to 1000 nM.

As to `O=c1ccn(-c2ccc(F)c(F)c2)nc1Cc1cccc(-c2ncc(O)cn2)c1` [Example 188, 1-(3,4-Difluorophenyl)-3-[3-(5-hydroxypyrimidin-2-yl)benzyl]pyridazin-4(1H)-one], the IC50 fell in the range of 100 to 1000 nM. The figure for `Cn1cc(-n2ccc(=O)c(Cc3cccc(-c4ncc(CO)cn4)c3)n2)cn1` [Example 190, 3-{3-[5-(Hydroxymethyl)pyrimidin-2-yl]benzyl}-1-(1-methyl-1H-pyrazol-4-yl)pyridazin-4(1H)-one] is < 100 nM; for `CCn1cnc(-c2cccc(Cc3nn(-c4cnn(CCO)c4)ccc3=O)c2)n1` [Example 191, 3-[3-(1-Ethyl-1H-1,2,4-triazol-3-yl)benzyl]-1-[1-(2-hydroxyethyl)-1H-pyrazol-4-yl]pyridazin-4(1H)-one] it is < 100 nM; for `CCOc1cnc(-c2cccc(Cc3nn(-c4cnn(CCO)c4)ccc3=O)c2)nc1` [Example 193, 3-[3-(5-ethoxypyrimidin-2-yl)benzyl]-1-[1-(2-hydroxyethyl)-1H-pyrazol-4-yl]pyridazin-4(1H)-one] it is < 100 nM. For the compound `O=c1ccn(-c2cn[nH]c2)nc1Cc1cccc(-c2ncc(O)cn2)c1` [Example 194, 3-[3-(5-Hydroxypyrimidin-2-yl)benzyl]-1-(1H-pyrazol-4-yl)pyridazin-4(1H)-one], the IC50 was 100 to 1000 nM. Turning to `CCOc1cnc(-c2cccc(Cc3nn(-c4cn[nH]c4)ccc3=O)c2)nc1` [Example 195, 3-[3-(5-Ethoxypyrimidin-2-yl)benzyl]-1-(1H-pyrazol-4-yl)pyridazin-4(1H)-one], the 50% inhibitory concentration (IC50) was < 100 nM. Consider `COCCOC(=O)Nc1cccc(Cc2nn(-c3cn[nH]c3)ccc2=O)c1` [Example 196, 2-methoxyethyl (3-{[4-oxo-1-(1H-pyrazol-4-yl)-1,4-dihydropyridazin-3-yl]methyl}phenyl)carbamate], for which the half-maximal inhibitory concentration (IC50) is < 100 nM. The figure for `CC(C)COC(=O)Nc1cccc(Cc2nn(-c3cn[nH]c3)ccc2=O)c1` [Example 197, isobutyl (3-{[4-oxo-1-(1H-pyrazol-4-yl)-1,4-dihydropyridazin-3-yl]methyl}phenyl)carbamate] is < 100 nM; for `Cn1cc(-n2ccc(=O)c(Cc3cccc(-c4ncc(C5CCNCC5)cn4)c3)n2)cn1` [Example 200, 1-(1-Methyl-1H-pyrazol-4-yl)-3-{3-[5-(piperidin-4-yl)pyrimidin-2-yl]benzyl}pyridazin-4(1H)-one] it is < 100 nM.

For `Cn1cc(-n2ccc(=O)c(Cc3cccc(-c4ncc(OCC(F)(F)CN5CCOCC5)cn4)c3)n2)cn1` [Example 259, 3-(3-{5-[2,2-Difluoro-3-(morpholin-4-yl)propoxy]pyrimidin-2-yl}benzyl)-1-(1-methyl-1H-pyrazol-4-yl)pyridazin-4(1H)-one], the IC50 was < 100 nM.

For the compound `CC(C)COc1cnc(-c2cccc(Cc3nn(-c4cnn(C)c4)ccc3=O)c2)nc1` [Example 261, 3-{3-[5-(2-methylpropoxy)pyrimidin-2-yl]benzyl}-1-(1-methyl-1H-pyrazol-4-yl)pyridazin-4(1H)-one], the IC50 is < 100 nM. The result for `Cn1cc(-n2ccc(=O)c(Cc3cccc(-c4ncc(OCC5CCOCC5)cn4)c3)n2)cn1` [Example 262, 1-(1-methyl-1H-pyrazol-4-yl)-3-{3-[5-(tetrahydro-2H-pyran-4-ylmethoxy)pyrimidin-2-yl]benzyl}pyridazin-4(1H)-one] reads < 100 nM.

With `Cn1cc(-n2ccc(=O)c(Cc3cccc(-c4ncc(OCCN5CCOCC5)cn4)c3)n2)cn1` [Example 263, 1-(1-methyl-1H-pyrazol-4-yl)-3-{3-[5-(2-morpholin-4-ylethoxy)pyrimidin-2-yl]benzyl}pyridazin-4(1H)-one], the IC50 is < 100 nM. On to `Cn1cc(-n2ccc(=O)c(Cc3cccc(-c4ncc(OCCO)cn4)c3)n2)cn1` [Example 264, 3-{3-[5-(2-hydroxyethoxy)pyrimidin-2-yl]benzyl}-1-(1-methyl-1H-pyrazol-4-yl)pyridazin-4(1H)-one], for which the 50% inhibitory concentration (IC50) is < 100 nM.

`Cn1cc(-n2ccc(=O)c(Cc3cccc(-c4ncc(OCCn5cccn5)cn4)c3)n2)cn1` [Example 265, 1-(1-methyl-1H-pyrazol-4-yl)-3-(3-{5-[2-(1H-pyrazol-1-yl)ethoxy]pyrimidin-2-yl}benzyl)pyridazin-4(1H)-one]: the IC50 is < 100 nM. As to `COC(C)(C)COc1cnc(-c2cccc(Cc3nn(-c4cnn(C)c4)ccc3=O)c2)nc1` [Example 267, 3-{3-[5-(2-methoxy-2-methylpropoxy)pyrimidin-2-yl]benzyl}-1-(1-methyl-1H-pyrazol-4-yl)pyridazin-4(1H)-one], the IC50 is < 100 nM.

`Cn1cc(-n2ccc(=O)c(Cc3cccc(-c4ncc(OCC5(CO)COC5)cn4)c3)n2)cn1` [Example 268, 3-[3-(5-{[3-(hydroxymethyl)oxetan-3-yl]methoxy}pyrimidin-2-yl)benzyl]-1-(1-methyl-1H-pyrazol-4-yl)pyridazin-4(1H)-one]: the IC50 is < 100 nM. As for `CC(C)Oc1cnc(-c2cccc(Cc3nn(-c4cnn(C)c4)ccc3=O)c2)nc1` [Example 270, 3-{3-[5-(1-methylethoxy)pyrimidin-2-yl]benzyl}-1-(1-methyl-1H-pyrazol-4-yl)pyridazin-4(1H)-one], the half-maximal inhibitory concentration (IC50) was < 100 nM.

As to `Cn1cc(-n2ccc(=O)c(Cc3cccc(-c4ncc(OCCn5cncn5)cn4)c3)n2)cn1` [Example 271, 1-(1-methyl-1H-pyrazol-4-yl)-3-(3-{5-[2-(1H-1,2,4-triazol-1-yl)ethoxy]pyrimidin-2-yl}benzyl)pyridazin-4(1H)-one], the IC50 is < 100 nM. The figure for `Cn1cc(-n2ccc(=O)c(Cc3cccc(-c4ncc(OCC5(F)COC5)cn4)c3)n2)cn1` [Example 272, 3-(3-{5-[(3-fluorooxetan-3-yl)methoxy]pyrimidin-2-yl}benzyl)-1-(1-methyl-1H-pyrazol-4-yl)pyridazin-4(1H)-one] is < 100 nM; for `Cn1cc(-n2ccc(=O)c(Cc3cccc(-c4ncc(OCCc5cnoc5)cn4)c3)n2)cn1` [Example 273, 3-{3-[5-(2-isoxazol-4-ylethoxy)pyrimidin-2-yl]benzyl}-1-(1-methyl-1H-pyrazol-4-yl)pyridazin-4(1H)-one] it is < 100 nM.
